The EC50 is the concentration giving half of the maximal effect. By IC50 is commonly meant the concentration at which inhibition is half-maximal. For orientation: AC50 means the concentration giving half of the maximal activity seen.

A short description of test [1]: fluconazole-exposed Candida albicans growth modulators – fluorescence, retest, confirmation (AID 2467). It counts as functional, cell-based.
Test [2] can be described thus: Counterscreen for AddAB inhibitors: absorbance-based bacterial cell-based high throughput dose response assay for inhibitors of bacterial viability. [Related pubchem assays (depositor defined):AID435030, AID449728, AID449731, AID488942, AID488955, AID488956]. The format is functional.
The test system of test [3] is INS1. As to the kind of experiment: INS-1E survival protection against cytokine death – cell-based, luminescence, retest, dose response (AID 449756).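 Also: cell death triggered by IL-1 beta plus TNF-alpha plus IFN-gamma mixture; protective hits raise ATP signal compared with cytokine alone wells.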 The settings on record: Rattus norvegicus. The format is functional.
Test [4] can be described thus: cells. The format is functional, cell-based.
Test [5] in a line: cells. It counts as functional, cell-based. This is another data set of the same source.
Test [6] concerns the target T1, Apoptotic protease-activating factor 1 (Homo sapiens, UniProt O14727).
T1 sequence (O14727 whole entry): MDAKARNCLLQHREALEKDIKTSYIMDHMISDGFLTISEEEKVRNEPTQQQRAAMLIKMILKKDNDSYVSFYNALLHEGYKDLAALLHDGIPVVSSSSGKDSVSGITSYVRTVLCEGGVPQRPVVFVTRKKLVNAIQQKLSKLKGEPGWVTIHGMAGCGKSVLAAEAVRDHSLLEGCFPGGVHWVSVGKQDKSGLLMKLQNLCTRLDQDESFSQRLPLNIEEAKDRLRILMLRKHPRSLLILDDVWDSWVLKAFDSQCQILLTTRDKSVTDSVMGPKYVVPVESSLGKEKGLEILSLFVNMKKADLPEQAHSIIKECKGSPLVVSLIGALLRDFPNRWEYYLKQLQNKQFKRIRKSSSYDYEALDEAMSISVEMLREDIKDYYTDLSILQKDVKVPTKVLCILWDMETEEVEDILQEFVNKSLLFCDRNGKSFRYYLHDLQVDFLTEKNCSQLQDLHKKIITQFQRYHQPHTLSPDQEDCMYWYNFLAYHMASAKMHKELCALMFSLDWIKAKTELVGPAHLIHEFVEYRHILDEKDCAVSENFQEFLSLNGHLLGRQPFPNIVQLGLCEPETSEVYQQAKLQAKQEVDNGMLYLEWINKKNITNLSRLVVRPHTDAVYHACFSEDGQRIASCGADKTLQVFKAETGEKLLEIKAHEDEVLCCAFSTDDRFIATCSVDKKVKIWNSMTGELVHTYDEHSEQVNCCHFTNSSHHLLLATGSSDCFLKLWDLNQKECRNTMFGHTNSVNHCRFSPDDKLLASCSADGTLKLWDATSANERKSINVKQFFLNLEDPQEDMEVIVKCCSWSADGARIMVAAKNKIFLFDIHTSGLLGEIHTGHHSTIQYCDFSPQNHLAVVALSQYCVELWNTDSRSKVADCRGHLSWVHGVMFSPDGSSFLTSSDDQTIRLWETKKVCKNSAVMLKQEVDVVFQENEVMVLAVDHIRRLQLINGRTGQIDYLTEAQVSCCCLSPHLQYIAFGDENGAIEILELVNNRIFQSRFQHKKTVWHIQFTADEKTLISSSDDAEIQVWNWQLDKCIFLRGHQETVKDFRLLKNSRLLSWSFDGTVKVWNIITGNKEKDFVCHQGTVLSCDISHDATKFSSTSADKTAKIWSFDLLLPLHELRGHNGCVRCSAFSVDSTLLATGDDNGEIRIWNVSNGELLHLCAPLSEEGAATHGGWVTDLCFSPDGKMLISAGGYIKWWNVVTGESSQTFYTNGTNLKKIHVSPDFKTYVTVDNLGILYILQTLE
The format is functional.

Test [7] addresses Tyrosyl-DNA phosphodiesterase 2 (Homo sapiens, UniProt O95551). As to the kind of experiment: potency against TDP2 phosphodiesterase activity – biochemical, epi absorbance, IC50, dose response (AID 743297).

SMILES strings stand for the structures. Activity calls are given as the source filed them.

Tyrosyl-DNA phosphodiesterase 2, sequence (O95551 whole entry): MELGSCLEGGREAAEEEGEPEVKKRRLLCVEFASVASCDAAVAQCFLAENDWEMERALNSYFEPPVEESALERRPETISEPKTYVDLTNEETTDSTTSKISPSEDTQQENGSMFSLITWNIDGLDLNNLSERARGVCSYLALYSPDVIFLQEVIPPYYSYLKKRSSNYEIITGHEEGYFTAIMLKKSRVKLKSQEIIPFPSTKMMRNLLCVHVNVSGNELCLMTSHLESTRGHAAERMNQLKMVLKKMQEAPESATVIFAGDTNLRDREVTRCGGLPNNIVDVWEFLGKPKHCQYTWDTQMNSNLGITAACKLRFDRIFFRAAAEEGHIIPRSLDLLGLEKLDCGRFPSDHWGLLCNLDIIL

On to `CCC(=O)NC(c1ccccc1OC)c1ccc2cccnc2c1O` (stereo not given), for which the values for the EC50 in test [1], in test [4] and in test [5] were 1.48 µM (active), 7.23 µM (active) and > 350 µM (not active), respectively. Further, the IC50 in test [2] was > 119 µM (inactive). Also, the AC50 in test [3] was 1.17 µM (active).
`CC(C)N(C(=O)Nc1ccc2nsnc2c1)C(C)C`: the IC50 in test [6] is 6.61 µM (active); in test [7], 8.96 µM (active).
For the compound `O=C(N/N=C/c1ccc(O)cc1O)c1ccc(CN2C(=O)c3cccc4cccc2c34)cc1`, the EC50 in test [1] was 0.384 µM (active); in test [4], 31 µM (active); in test [5], > 350 µM (not active). The IC50 in test [2] was > 119 µM (inactive). For the same compound, the AC50 in test [3] was 0.768 µM (active).
As to `CC(C)n1cnc2c(NCc3ccccc3)cc(OCC3CCN(C)CC3)cc21`, the IC50 in test [6] is 6.63 µM (active).
Turning to `NS(=O)(=O)c1ccc(NC2=CC(=O)C(=O)c3ccccc32)cc1`, the results for the IC50 in test [6] and in test [7] were 2.08 µM (active) and 5.59 µM (active), respectively.

The values above are taken from ChEMBL document CHEMBL1201862, “PubChem BioAssay data set” (2004).
